Read-outs that look alike come from different tables or passages of the source.
How the values were obtained:
[1] = Buffer capacity determination by titration with 0.1 M HCl; type: physicochemical; conditions: without added buffering agent
Procedure: Method: 10.0 ml of the respective below solutions was titrated with 0.1 M HCl to pH 7.0. The amount of 0.1 M HCl needed to decrease pH from 9.0 to 8.0 was determined

[2] = Source text: Absorption of nicotine from the oral cavity to the systemic circulation is dependent on the pH of the saliva and the pKa of nicotine, which is about 7.8. Assuming a pH of the saliva of 6.8 only about 10% of the nicotine in saliva will be in the free base form. Thus, in order to promote absorption of nicotine in a free base form, which is the form predominantly absorbed through the mucosa, the pH of the saliva must be increased. At a pH of 8.8 about 90% of the nicotine in saliva will then be in the free base form.
[3] = Merck Index; cited from earlier work
[4] = smoking of a cigarette; cited from earlier work

## CN1CCCC1c1cccnc1 (centres unmarked) [nicotine, 3-(1-methyl-2-pyrrolidinyl)-pyridine]
[1]
  buffering capacity on its own, in words: too weak a buffering capacity on its own
[2]; saliva pH 6.8
  nicotine in saliva in the free base form: about 10%
[2]; saliva pH 8.8
  nicotine in saliva in the free base form: about 90%
[3]
  amount of nicotine that may kill an adult: Approximately forty
[4]
  time for nicotine to reach the brain after inhalation: around ten

From US20130237570A1 (priority 2002, published 2013)
